# System: BT-474
# Test: normalised response (% of control), CellTiter-Glo; higher = more viable cells (100 = DMSO, 0 = benzethonium chloride kill control)
# Details: incubation time: 72 h
# In short: (§1)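 Breast cancer cell lines, seeded at 20 µl suspension per well, were incubated for 72 h in 384-well plates containing compound at 5 concentrations. These concentrations rose in 10-fold steps over a 10,000-fold range set for each compound. CellTox Green fluorescence (485/520 nm) was read, then CellTiter-Glo luminescence after 10 min at room temperature, and each plate was normalised to 0.1 % DMSO (100) and a positive kill control (0). Values are normalised signals, each at one concentration.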
row,SMILES,normalised response [%]
1,CCc1cnn2c(NCc3ccc[n+]([O-])c3)cc(N3CCCC[C@H]3CCO)nc12 [Dinaciclib] (10 nM),67.7
2,CC(C)C(=O)Nc1ccc([N+](=O)[O-])c(C(F)(F)F)c1 [Flutamide] (100 nM),101
3,COc1cc2c(Oc3ccc(NC(=O)C4(C(=O)Nc5ccc(F)cc5)CC4)cc3F)ccnc2cc1OCCCN1CCOCC1 [Foretinib] (10 nM),102
4,COc1cc(Nc2ncc(F)c(Nc3ccc4c(n3)N(COP(=O)(O)O)C(=O)C(C)(C)O4)n2)cc(OC)c1OC [Fostamatinib] (25 nM),97.3
5,CC[C@@H]1C(=O)N(C)c2cnc(Nc3ccc(C(=O)N[C@H]4CC[C@H](N5CCN(CC6CC6)CC5)CC4)cc3OC)nc2N1C(C)C [Volasertib] (10 nM),82.6

# System: CAL-148
# Test: normalised response (% of control), CellTox Green; higher = less cell death (100 = DMSO, 0 = benzethonium chloride kill control)
# Details: incubation time: 72 h
# In short: as §1
row,SMILES,normalised response [%]
1,CC(C)(C)Cn1c(N)nc2ccc(-c3[nH]c(C(C)(C)C)nc3-c3ccc(F)cc3)nc21 (100 nM),102
2,CC[C@H](CC#N)OC(=O)N[C@@H](C)c1cccc(NC(=O)Nc2ccc(-c3cnco3)c(OC)c2)c1 [AVN944] (100 nM),95.8
3,CC(C)C[C@H](NC(=O)[C@H](CCc1ccccc1)NC(=O)CN1CCOCC1)C(=O)N[C@@H](Cc1ccccc1)C(=O)N[C@@H](CC(C)C)C(=O)[C@@]1(C)CO1 [Carfilzomib] (10 nM),78.6
4,CCc1cnn2c(NCc3ccc[n+]([O-])c3)cc(N3CCCC[C@H]3CCO)nc12 [Dinaciclib] (10 nM),93.2
5,CC(C)C(=O)Nc1ccc([N+](=O)[O-])c(C(F)(F)F)c1 [Flutamide] (100 nM),92.5
6,COc1cc2c(Oc3ccc(NC(=O)C4(C(=O)Nc5ccc(F)cc5)CC4)cc3F)ccnc2cc1OCCCN1CCOCC1 [Foretinib] (10 nM),105
7,COc1cc(Nc2ncc(F)c(Nc3ccc4c(n3)N(COP(=O)(O)O)C(=O)C(C)(C)O4)n2)cc(OC)c1OC [Fostamatinib] (25 nM),99.6
8,CC[C@@H]1C(=O)N(C)c2cnc(Nc3ccc(C(=O)N[C@H]4CC[C@H](N5CCN(CC6CC6)CC5)CC4)cc3OC)nc2N1C(C)C [Volasertib] (10 nM),86

# System: MDA-MB-468
# Test: as above
# Details: incubation time: 72 h
# In short: as §1
row,SMILES,normalised response [%]
1,CC(C)(C)Cn1c(N)nc2ccc(-c3[nH]c(C(C)(C)C)nc3-c3ccc(F)cc3)nc21 (100 nM),117
2,CC[C@H](CC#N)OC(=O)N[C@@H](C)c1cccc(NC(=O)Nc2ccc(-c3cnco3)c(OC)c2)c1 [AVN944] (100 nM),73.7
3,CC(C)C[C@H](NC(=O)[C@H](CCc1ccccc1)NC(=O)CN1CCOCC1)C(=O)N[C@@H](Cc1ccccc1)C(=O)N[C@@H](CC(C)C)C(=O)[C@@]1(C)CO1 [Carfilzomib] (10 nM),-51.7
4,CCc1cnn2c(NCc3ccc[n+]([O-])c3)cc(N3CCCC[C@H]3CCO)nc12 [Dinaciclib] (10 nM),82.9
5,CC(C)C(=O)Nc1ccc([N+](=O)[O-])c(C(F)(F)F)c1 [Flutamide] (100 nM),124
6,COc1cc2c(Oc3ccc(NC(=O)C4(C(=O)Nc5ccc(F)cc5)CC4)cc3F)ccnc2cc1OCCCN1CCOCC1 [Foretinib] (10 nM),139
7,COc1cc(Nc2ncc(F)c(Nc3ccc4c(n3)N(COP(=O)(O)O)C(=O)C(C)(C)O4)n2)cc(OC)c1OC [Fostamatinib] (25 nM),118
8,CC[C@@H]1C(=O)N(C)c2cnc(Nc3ccc(C(=O)N[C@H]4CC[C@H](N5CCN(CC6CC6)CC5)CC4)cc3OC)nc2N1C(C)C [Volasertib] (10 nM),34.3

# System: MDA-MB-436
# Test: as above
# Details: incubation time: 72 h
# In short: as §1
row,SMILES,normalised response [%]
1,CC(C)(C)Cn1c(N)nc2ccc(-c3[nH]c(C(C)(C)C)nc3-c3ccc(F)cc3)nc21 (100 nM),98
2,CC[C@H](CC#N)OC(=O)N[C@@H](C)c1cccc(NC(=O)Nc2ccc(-c3cnco3)c(OC)c2)c1 [AVN944] (100 nM),90.8
3,CC(C)C[C@H](NC(=O)[C@H](CCc1ccccc1)NC(=O)CN1CCOCC1)C(=O)N[C@@H](Cc1ccccc1)C(=O)N[C@@H](CC(C)C)C(=O)[C@@]1(C)CO1 [Carfilzomib] (10 nM),48.3
4,CCc1cnn2c(NCc3ccc[n+]([O-])c3)cc(N3CCCC[C@H]3CCO)nc12 [Dinaciclib] (10 nM),54
5,CC(C)C(=O)Nc1ccc([N+](=O)[O-])c(C(F)(F)F)c1 [Flutamide] (100 nM),82
6,COc1cc2c(Oc3ccc(NC(=O)C4(C(=O)Nc5ccc(F)cc5)CC4)cc3F)ccnc2cc1OCCCN1CCOCC1 [Foretinib] (10 nM),79.1
7,COc1cc(Nc2ncc(F)c(Nc3ccc4c(n3)N(COP(=O)(O)O)C(=O)C(C)(C)O4)n2)cc(OC)c1OC [Fostamatinib] (25 nM),62.8
8,CC[C@@H]1C(=O)N(C)c2cnc(Nc3ccc(C(=O)N[C@H]4CC[C@H](N5CCN(CC6CC6)CC5)CC4)cc3OC)nc2N1C(C)C [Volasertib] (10 nM),19.6

# System: DU-4475
# Test: as above
# Details: incubation time: 72 h
# In short: as §1
row,SMILES,normalised response [%]
1,CC(C)(C)Cn1c(N)nc2ccc(-c3[nH]c(C(C)(C)C)nc3-c3ccc(F)cc3)nc21 (100 nM),103
2,CC[C@H](CC#N)OC(=O)N[C@@H](C)c1cccc(NC(=O)Nc2ccc(-c3cnco3)c(OC)c2)c1 [AVN944] (100 nM),97.8
3,CC(C)C[C@H](NC(=O)[C@H](CCc1ccccc1)NC(=O)CN1CCOCC1)C(=O)N[C@@H](Cc1ccccc1)C(=O)N[C@@H](CC(C)C)C(=O)[C@@]1(C)CO1 [Carfilzomib] (10 nM),100
4,CCc1cnn2c(NCc3ccc[n+]([O-])c3)cc(N3CCCC[C@H]3CCO)nc12 [Dinaciclib] (10 nM),103
5,CC(C)C(=O)Nc1ccc([N+](=O)[O-])c(C(F)(F)F)c1 [Flutamide] (100 nM),99.3
6,COc1cc2c(Oc3ccc(NC(=O)C4(C(=O)Nc5ccc(F)cc5)CC4)cc3F)ccnc2cc1OCCCN1CCOCC1 [Foretinib] (10 nM),102
7,COc1cc(Nc2ncc(F)c(Nc3ccc4c(n3)N(COP(=O)(O)O)C(=O)C(C)(C)O4)n2)cc(OC)c1OC [Fostamatinib] (25 nM),99.6
8,CC[C@@H]1C(=O)N(C)c2cnc(Nc3ccc(C(=O)N[C@H]4CC[C@H](N5CCN(CC6CC6)CC5)CC4)cc3OC)nc2N1C(C)C [Volasertib] (10 nM),95.3

# System: CAL-85-1
# Test: as above
# Details: incubation time: 72 h
# In short: as §1
row,SMILES,normalised response [%]
1,CC(C)(C)Cn1c(N)nc2ccc(-c3[nH]c(C(C)(C)C)nc3-c3ccc(F)cc3)nc21 (100 nM),112
2,CC[C@H](CC#N)OC(=O)N[C@@H](C)c1cccc(NC(=O)Nc2ccc(-c3cnco3)c(OC)c2)c1 [AVN944] (100 nM),95.9
3,CC(C)C[C@H](NC(=O)[C@H](CCc1ccccc1)NC(=O)CN1CCOCC1)C(=O)N[C@@H](Cc1ccccc1)C(=O)N[C@@H](CC(C)C)C(=O)[C@@]1(C)CO1 [Carfilzomib] (10 nM),43.5
4,CCc1cnn2c(NCc3ccc[n+]([O-])c3)cc(N3CCCC[C@H]3CCO)nc12 [Dinaciclib] (10 nM),67.9
5,CC(C)C(=O)Nc1ccc([N+](=O)[O-])c(C(F)(F)F)c1 [Flutamide] (100 nM),89.6
6,COc1cc2c(Oc3ccc(NC(=O)C4(C(=O)Nc5ccc(F)cc5)CC4)cc3F)ccnc2cc1OCCCN1CCOCC1 [Foretinib] (10 nM),107
7,COc1cc(Nc2ncc(F)c(Nc3ccc4c(n3)N(COP(=O)(O)O)C(=O)C(C)(C)O4)n2)cc(OC)c1OC [Fostamatinib] (25 nM),106
8,CC[C@@H]1C(=O)N(C)c2cnc(Nc3ccc(C(=O)N[C@H]4CC[C@H](N5CCN(CC6CC6)CC5)CC4)cc3OC)nc2N1C(C)C [Volasertib] (10 nM),69.5

# System: MCF-10A
# Test: as above
# Details: incubation time: 72 h
# In short: as §1
row,SMILES,normalised response [%]
1,CC(C)(C)Cn1c(N)nc2ccc(-c3[nH]c(C(C)(C)C)nc3-c3ccc(F)cc3)nc21 (100 nM),99.2
2,CC[C@H](CC#N)OC(=O)N[C@@H](C)c1cccc(NC(=O)Nc2ccc(-c3cnco3)c(OC)c2)c1 [AVN944] (100 nM),67.8
3,CC(C)C[C@H](NC(=O)[C@H](CCc1ccccc1)NC(=O)CN1CCOCC1)C(=O)N[C@@H](Cc1ccccc1)C(=O)N[C@@H](CC(C)C)C(=O)[C@@]1(C)CO1 [Carfilzomib] (10 nM),100
4,CCc1cnn2c(NCc3ccc[n+]([O-])c3)cc(N3CCCC[C@H]3CCO)nc12 [Dinaciclib] (10 nM),107
5,CC(C)C(=O)Nc1ccc([N+](=O)[O-])c(C(F)(F)F)c1 [Flutamide] (100 nM),50.2
6,COc1cc2c(Oc3ccc(NC(=O)C4(C(=O)Nc5ccc(F)cc5)CC4)cc3F)ccnc2cc1OCCCN1CCOCC1 [Foretinib] (10 nM),107
7,COc1cc(Nc2ncc(F)c(Nc3ccc4c(n3)N(COP(=O)(O)O)C(=O)C(C)(C)O4)n2)cc(OC)c1OC [Fostamatinib] (25 nM),80.9

# System: CAL-51
# Test: as above
# Details: incubation time: 72 h
# In short: as §1
row,SMILES,normalised response [%]
1,CC(C)(C)Cn1c(N)nc2ccc(-c3[nH]c(C(C)(C)C)nc3-c3ccc(F)cc3)nc21 (100 nM),96.5
2,CC[C@H](CC#N)OC(=O)N[C@@H](C)c1cccc(NC(=O)Nc2ccc(-c3cnco3)c(OC)c2)c1 [AVN944] (100 nM),95
3,CC(C)C[C@H](NC(=O)[C@H](CCc1ccccc1)NC(=O)CN1CCOCC1)C(=O)N[C@@H](Cc1ccccc1)C(=O)N[C@@H](CC(C)C)C(=O)[C@@]1(C)CO1 [Carfilzomib] (10 nM),35.9
4,CCc1cnn2c(NCc3ccc[n+]([O-])c3)cc(N3CCCC[C@H]3CCO)nc12 [Dinaciclib] (10 nM),87.1
5,CC(C)C(=O)Nc1ccc([N+](=O)[O-])c(C(F)(F)F)c1 [Flutamide] (100 nM),111
6,COc1cc2c(Oc3ccc(NC(=O)C4(C(=O)Nc5ccc(F)cc5)CC4)cc3F)ccnc2cc1OCCCN1CCOCC1 [Foretinib] (10 nM),109
7,COc1cc(Nc2ncc(F)c(Nc3ccc4c(n3)N(COP(=O)(O)O)C(=O)C(C)(C)O4)n2)cc(OC)c1OC [Fostamatinib] (25 nM),95
8,CC[C@@H]1C(=O)N(C)c2cnc(Nc3ccc(C(=O)N[C@H]4CC[C@H](N5CCN(CC6CC6)CC5)CC4)cc3OC)nc2N1C(C)C [Volasertib] (10 nM),65.5

# System: CAL-120
# Test: as above
# Details: incubation time: 72 h
# In short: as §1
row,SMILES,normalised response [%]
1,CC(C)(C)Cn1c(N)nc2ccc(-c3[nH]c(C(C)(C)C)nc3-c3ccc(F)cc3)nc21 (100 nM),103
2,CC[C@H](CC#N)OC(=O)N[C@@H](C)c1cccc(NC(=O)Nc2ccc(-c3cnco3)c(OC)c2)c1 [AVN944] (100 nM),97.7
3,CC(C)C[C@H](NC(=O)[C@H](CCc1ccccc1)NC(=O)CN1CCOCC1)C(=O)N[C@@H](Cc1ccccc1)C(=O)N[C@@H](CC(C)C)C(=O)[C@@]1(C)CO1 [Carfilzomib] (10 nM),91.2
4,CCc1cnn2c(NCc3ccc[n+]([O-])c3)cc(N3CCCC[C@H]3CCO)nc12 [Dinaciclib] (10 nM),96.6
5,CC(C)C(=O)Nc1ccc([N+](=O)[O-])c(C(F)(F)F)c1 [Flutamide] (100 nM),104
6,COc1cc2c(Oc3ccc(NC(=O)C4(C(=O)Nc5ccc(F)cc5)CC4)cc3F)ccnc2cc1OCCCN1CCOCC1 [Foretinib] (10 nM),91.5
7,COc1cc(Nc2ncc(F)c(Nc3ccc4c(n3)N(COP(=O)(O)O)C(=O)C(C)(C)O4)n2)cc(OC)c1OC [Fostamatinib] (25 nM),98.4
8,CC[C@@H]1C(=O)N(C)c2cnc(Nc3ccc(C(=O)N[C@H]4CC[C@H](N5CCN(CC6CC6)CC5)CC4)cc3OC)nc2N1C(C)C [Volasertib] (10 nM),91.6

# System: MDA-MB-453
# Test: as above
# Details: incubation time: 72 h
# In short: as §1
row,SMILES,normalised response [%]
1,CC(C)(C)Cn1c(N)nc2ccc(-c3[nH]c(C(C)(C)C)nc3-c3ccc(F)cc3)nc21 (100 nM),102
2,CC[C@H](CC#N)OC(=O)N[C@@H](C)c1cccc(NC(=O)Nc2ccc(-c3cnco3)c(OC)c2)c1 [AVN944] (100 nM),70.8
3,CC(C)C[C@H](NC(=O)[C@H](CCc1ccccc1)NC(=O)CN1CCOCC1)C(=O)N[C@@H](Cc1ccccc1)C(=O)N[C@@H](CC(C)C)C(=O)[C@@]1(C)CO1 [Carfilzomib] (10 nM),84.6
4,CCc1cnn2c(NCc3ccc[n+]([O-])c3)cc(N3CCCC[C@H]3CCO)nc12 [Dinaciclib] (10 nM),104
5,CC(C)C(=O)Nc1ccc([N+](=O)[O-])c(C(F)(F)F)c1 [Flutamide] (100 nM),104

# — the supplement of paper PMC4862054
